Experimental findings from patent publication US4329295A, “24-Cyclopropylcholene-3β, 22-diols and esters thereof” (G. D. Searle & Co., priority 1981, dated 1982) are described below.

The assay has as its system HMG Co A reductase. Briefly: Reduction of HMG Co A reductase activity in liver microsomes of rats treated with 20,25-diazacholesterol and test compound. The format is in vivo, rat. The settings on record: male CD rats, test compound given last 3 days with 20,25-diazacholesterol, [14C]-mevalonic acid formation vs control. On the procedure:
Male rats of the CD strain from Charles River weighing 180-250 g., initially being kept on a regular laboratory diet, are used. The rats are maintained in reverse light-cycle room for 3-6 days. 20,25-Diazacholesterol is administered for a total of 6 days at a dose of 5 mg/kg/day (IG). The last 3 days the test compound is administered along with the 20,25-diazacholesterol. Both compounds are given 2 hours prior to the test on last day. The rats are anesthetized with ether, sacrificed, and the livers removed. Liver microsomes are collected by differential centrifugation after homogenation. Liver microsomes are used as the source of the HMG Co A reductase. Details of the assay are reported in L. W. White and H. Rudney, Biochemistry 9, 2713 (1970); Brown et al., J. Biol. Chem. 248, 4731 (1973); and C. A. Edwards, Biochem. Biophys. Acts 409, 39 (1975). The percent change in formation of [^ 14 C]-mevalonic acid from [^14 C]-HMG Co A is used as a measure of enzyme activity for treated groups versus control groups of rats. If the treated groups have less activity, and the decrease is statistically significant at P≤0.05, the compound is rated active.
On the technique in general: Microsomes from liver hold many membrane-bound enzymes, among them those of drug oxidation.

As to `C[C@@H]([C@H]1CC[C@H]2[C@@H]3CC=C4C[C@@H](O)CC[C@]4(C)[C@H]3CC[C@]12C)[C@@H](O)CCC1CC1` [24-cyclopropylchol-5-ene-3β,22S-diol], the “inhibition of HMG Co A reductase activity” value came to 32% (0.5 mg/kg (IG)) and 79% (5 mg/kg (IG)).
